US11691984B2, “Compounds and methods for DCAF-mediated protein degradation” (The Scripps Research Institute, priority 2018, dated 2023)

Legend:
Format in all cases: cell-based
[1] = target: T1, BRD2 (Homo sapiens, UniProt P25440); assay: Proteome-wide SILAC MS protein abundance in HEK293T cells: BRD2; details: KB02-JQ1 20 μM, 24 hours
T1 construct: endogenous in cells; host or cells: HEK293T
Experimental: (§1) HEK293T light and heavy SILAC cells were treated with DMSO and KB02-JQ1 (20 μM) or KB02-SLF (2 μM) for 24 hours, respectively. Light and heavy cells were collected and lysed in 1% NP-40 lysis buffer with complete protease inhibitor cocktail. Cells were vortexed and sonicated for 5 pulses (40%, 4). The supernatant was collected after centrifugation at 16,000 g for 10 min at 4° C. Protein concentration was determined by DC assay. 50 μg proteome from light and heavy samples were mixed, followed by methanol/chloroform precipitation. […] Next, the ratio of the peak areas under the light and heavy signals (signal-to-noise ratio>2.5) was calculated. […] In addition, peptides detected as ‘singletons,’ where only the heavy ion of a peptide pair was identified, but that cleared all other filtering parameters, were given a default assigned ratio of ‘20,’ which is defined as any measured ratio that is ≥20 and is the maximum ratio reported here.” The median SILAC ratios from quantified peptides were used as measures of protein abundance. The following quality filters were further applied to generate the plot: (1) proteins must have at least two quantified peptides; (2) proteins must be present in both replicates; (3) for each protein, the standard deviation of measured ratios of peptides must be <1.0.

[2] = target: T2, BRD3 (Homo sapiens, UniProt Q15059); assay: Proteome-wide SILAC MS protein abundance in HEK293T cells: BRD3; details: KB02-JQ1 20 μM, 24 hours
T2 construct: endogenous in cells; host or cells: HEK293T
T2 sequence (Q15059 whole entry): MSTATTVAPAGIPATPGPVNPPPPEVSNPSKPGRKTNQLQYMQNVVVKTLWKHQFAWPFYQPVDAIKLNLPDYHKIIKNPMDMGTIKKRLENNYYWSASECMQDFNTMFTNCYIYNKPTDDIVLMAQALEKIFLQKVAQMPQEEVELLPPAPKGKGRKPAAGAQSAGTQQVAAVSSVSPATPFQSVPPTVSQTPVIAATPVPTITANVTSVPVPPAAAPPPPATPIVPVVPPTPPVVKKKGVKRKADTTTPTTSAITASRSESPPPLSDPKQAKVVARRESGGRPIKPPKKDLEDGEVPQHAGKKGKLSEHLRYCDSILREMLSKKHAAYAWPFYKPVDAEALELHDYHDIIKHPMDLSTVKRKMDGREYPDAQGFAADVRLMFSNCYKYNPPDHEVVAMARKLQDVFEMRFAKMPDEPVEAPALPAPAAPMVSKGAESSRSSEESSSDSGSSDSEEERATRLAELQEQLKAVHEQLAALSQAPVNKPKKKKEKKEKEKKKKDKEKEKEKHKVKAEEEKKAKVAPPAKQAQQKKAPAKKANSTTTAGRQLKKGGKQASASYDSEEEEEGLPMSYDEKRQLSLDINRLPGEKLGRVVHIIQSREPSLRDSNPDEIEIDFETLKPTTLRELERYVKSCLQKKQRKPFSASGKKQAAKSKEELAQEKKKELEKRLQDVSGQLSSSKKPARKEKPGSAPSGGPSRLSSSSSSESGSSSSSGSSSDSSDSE
Experimental: as §1

[3] = target: T3, BRD4 (Homo sapiens, UniProt O60885); assay: Western blot of endogenous BRD4 in HEK293T cells; details: HEK293T, 24 hours
T3 construct: degradation of endogenous BRD4 in HEK293T cells; endogenous in cells; host or cells: HEK293T (A10, A16); HEK293 DCAF16+/+ and DCAF16-/- clones (A11)
Experimental: Cells were collected and lysed in 1% NP-40 lysis buffer (25 mM Tris-HCl pH 7.4, 150 mM NaCl, 10% glycerol, 1% Nonidet P-40) with complete protease inhibitor cocktail (Roche). Cells were vortexed and sonicated for 5 pulses (40%, 4). The supernatant was collected after centrifugation at 16,000 g for 10 min at 4° C. Protein concentration was determined by DC assay (Bio-Rad). Protein lysate was heated at 95° C. for 5 min in 1× Laemmli sample buffer. Proteins were resolved by 12% or 14% Novex Tris-Glycine Mini Gels (Invitrogen) and transferred to polyvinylidene fluoride (PVDF) membrane (0.2 Bio-Rad). The membrane was blocked with 5% BSA in TBST buffer (0.1% Tween 20, 20 mM Tris-HCl 7.6, 150 mM NaCl) at room temperature for 1 h. The antibody was diluted with fresh 5% BSA in TBST buffer (1:10000 dilution for FLAG, HA and β-Actin, 1:1000 dilution for others) and incubated with membrane (1 h room temperature for FLAG, HA and β-Actin, overnight 4° C. for others). Membrane was washed three times with TBST buffer and incubated with secondary antibody (1:5000 dilution in 5% BSA in TBST) at room temperature for 1 h. Membrane was washed three times with TBST buffer. The chemiluminescence signal in membrane was recorded after developing in ECL or ECL plus western blotting detection reagent using CL-XPosure film (Thermo Scientific). Relative band intensities were quantified using ImageJ.

[4] = target: T3, BRD4; assay: Western blot of BRD4 in DCAF16−/− HEK293 cells; details: 40 μM KB02-JQ1, 24 hours
Experimental: DCAF16 CRISPR knockout HEK293 cell pools were generated by Synthego using nucleofection of Cas9-gRNA ribonucleoprotein (RNP) complex. Editing efficiency 48 h post nucleofection of cell pool was 88%. HEK293 editing cell pools were subjected to single cell sorting in The Flow Cytometry Core Facility at Scripps Research. Individual cell clone was grown in 96-well plate until the cells were confluent. To confirm the editing in DCAF16 gene, genomic DNAs from each clone were extracted using PureLink Genomic DNA Mini Kit (Invitrogen). DCAF16 gene was amplified by PCR and confirmed by DNA sequencing. Indel analysis was performed using ICE analysis from Synthego.
Cells were collected and lysed in 1% NP-40 lysis buffer (25 mM Tris-HCl pH 7.4, 150 mM NaCl, 10% glycerol, 1% Nonidet P-40) with complete protease inhibitor cocktail (Roche). Cells were vortexed and sonicated for 5 pulses (40%, 4). The supernatant was collected after centrifugation at 16,000 g for 10 min at 4° C. Protein concentration was determined by DC assay (Bio-Rad). Protein lysate was heated at 95° C. for 5 min in 1× Laemmli sample buffer. […] The chemiluminescence signal in membrane was recorded after developing in ECL or ECL plus western blotting detection reagent using CL-XPosure film (Thermo Scientific). Relative band intensities were quantified using ImageJ.

T1 sequence (P25440 whole entry): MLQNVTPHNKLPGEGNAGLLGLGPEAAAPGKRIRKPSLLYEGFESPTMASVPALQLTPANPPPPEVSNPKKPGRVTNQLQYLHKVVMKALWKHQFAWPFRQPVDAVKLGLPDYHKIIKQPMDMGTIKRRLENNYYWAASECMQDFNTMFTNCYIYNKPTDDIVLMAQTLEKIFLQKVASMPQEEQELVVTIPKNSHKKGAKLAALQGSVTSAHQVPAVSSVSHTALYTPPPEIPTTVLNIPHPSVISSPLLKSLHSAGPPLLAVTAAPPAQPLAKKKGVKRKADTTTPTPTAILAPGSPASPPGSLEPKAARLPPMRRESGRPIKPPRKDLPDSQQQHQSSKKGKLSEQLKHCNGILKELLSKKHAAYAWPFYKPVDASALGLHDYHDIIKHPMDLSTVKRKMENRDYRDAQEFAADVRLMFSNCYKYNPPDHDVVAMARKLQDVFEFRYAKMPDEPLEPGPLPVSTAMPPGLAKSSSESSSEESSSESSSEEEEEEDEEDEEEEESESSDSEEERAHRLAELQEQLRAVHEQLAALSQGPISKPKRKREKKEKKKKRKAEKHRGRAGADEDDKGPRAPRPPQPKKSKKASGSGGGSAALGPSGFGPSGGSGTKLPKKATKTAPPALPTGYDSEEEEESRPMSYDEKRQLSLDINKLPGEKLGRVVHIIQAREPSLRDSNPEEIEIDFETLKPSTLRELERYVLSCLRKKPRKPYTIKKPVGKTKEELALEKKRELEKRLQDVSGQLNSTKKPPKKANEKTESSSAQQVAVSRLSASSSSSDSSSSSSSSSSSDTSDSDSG

## Cc1sc2c(c1C)C(c1ccc(Cl)cc1)=N[C@@H](CC(=O)NCCOCCOCCNC(=O)COc1ccc3c(c1)CCCN3C(=O)CCl)c1nnc(C)n1-2 [KB02-JQ1, (S)-2-((1-(2-chloroacetyl)-1,2,3,4-tetrahydroquinolin-6-yl)oxy)-N-(2-(2-(2-(2-(4-(4-chlorophenyl)-2,3,9-trimethyl-6H-thieno[3,2-f][1,2,4]triazolo[4,3-a][1,4]diazepin-6-yl)acetamido)ethoxy)ethoxy)ethyl)acetamide]
[1]
  BRD2 abundance (MS-based proteomics): appeared to be stabilized
[2]
  BRD3 abundance (MS-based proteomics): not BRD2 or BRD3
[3]
  concentration for degradation of BRD4: 20 to 40 µM
  degradation of BRD4: promoted, in a concentration-dependent manner, the degradation of BRD4
[4]
  BRD4 degradation in DCAF16−/− cells: substantially blocked
